The record followed here is EPA's ToxRefDB 2.

Data set [1] relates to rabbit. Particulars: Prenatal developmental toxicity study, new zealand white, Dermal, Topical, dose end: 18 GD, group: maternal.
In data set [2] the test system is rat. Particulars: Prenatal developmental toxicity study; wistar; Oral; Feed; dose end: 20 GD; group: maternal; systemic / in life observation / body weight / body weight gain.
Data set [3] has as its system rat. Particulars: Subchronic oral toxicity in rodents, fischer, Water, dose end: 13 week, group: systemic.
Data set [4] relates to rat. Particulars: Fertility (Segment I); sprague dawley; Oral; Gavage/Intubation; dose end: 13 PND; group: offspring; systemic / in life observation / body weight / offspring (pup) weight.
In data set [5] the test system is mouse. Particulars: Combined chronic toxicity/carcinogenicity, b6c3f1, Oral, Gavage/Intubation, dose end: 2 year, group: systemic.
Data set [6] deals with mouse. Particulars: Subchronic oral toxicity in rodents, b6c3f1, Gavage/Intubation, dose end: 13 week, group: systemic.
Data set [7] deals with rat. Particulars: Combined chronic toxicity/carcinogenicity; sprague dawley; Oral; Gavage/Intubation; dose end: 24 month; group: systemic; systemic / hematology / erythrocyte (rbc) count differential / erythrocyte (rbc) + systemic / hematology / hemoglobin (hgb) / hemoglobin (….
Data set [8] concerns rat. Particulars: Combined chronic toxicity/carcinogenicity, sprague dawley, Oral, Feed, dose end: 104 week, group: systemic.
In data set [9] the test system is mouse. Particulars: Carcinogenicity; cd1; Oral; Feed; dose end: 18 month; group: systemic; systemic / in life observation / body weight / body weight + systemic / in life observation / body weight / body weight gain.
In a further data set the test system is dog. Particulars: Chronic toxicity; beagle; Oral; Gavage/Intubation; dose end: 52 week; group: systemic; systemic / clinical chemistry / cholesterol / cholesterol + systemic / clinical chemistry / triglycerides / triglycerides + systemic / in ….
Data set [10] relates to rat. Particulars: Subchronic oral toxicity in rodents, sprague dawley, Feed, dose end: 90 day, group: systemic.
The test system of data set [11] is rat. Particulars: Combined chronic toxicity/carcinogenicity; fischer; Inhalation; Whole-Body; dose end: 105 week; group: systemic; systemic / pathology microscopic / nose / atrophy + systemic / pathology microscopic / nose / inflammation + systemic / pathology ….
The test system of data set [12] is rat. Particulars: Prenatal developmental toxicity study, sprague dawley, Oral, Gavage/Intubation, dose end: 15 GD.
Data set [13] concerns rat. Particulars: Combined chronic toxicity/carcinogenicity; fischer; Oral; Gavage/Intubation; dose end: 2 year; group: systemic; systemic / in life observation / body weight / body weight + systemic / in life observation / clinical signs / [other] + systemic / in life ….
In data set [14] the test system is rat. Particulars: Prenatal developmental toxicity study, sprague dawley, Oral, Gavage/Intubation, dose end: 19 GD.
The test system of data set [15] is rat. Particulars: Subchronic oral toxicity in rodents, fischer, Gavage/Intubation, dose end: 13 week, group: systemic.
Data set [16] relates to rat. Particulars: Prenatal developmental toxicity study, sprague dawley, Oral, Gavage/Intubation, dose end: 15 GD. This is another data set of the same source.
In data set [17] the test system is rabbit. Particulars: Prenatal developmental toxicity study, new zealand white, Oral, Gavage/Intubation, dose end: 18 GD, group: maternal.
[18] abbreviates: systemic / in life observation / clinical signs / desquamation + systemic / in life observation / clinical signs / erythema + systemic / ….
Where [19] appears, read: systemic / clinical chemistry / aspartate aminotransferase (ast/sgot) / aspartate aminotransferase (ast/sgot) + systemic / clinical ….
The mark [20] stands for this setting: systemic / hematology / methemoglobin / methemoglobin + systemic / hematology / reticulocyte / reticulocyte + systemic / pathology ….
Setting [21] is: systemic / pathology microscopic / bone marrow / hypercellularity.
Setting [22] is: systemic / hematology / reticulocyte / reticulocyte + systemic / organ weight / spleen / absolute + systemic / organ weight / spleen / ….
Setting [23] is: systemic / organ weight / liver / relative to body weight + systemic / clinical chemistry / cholesterol / cholesterol + systemic / organ ….
Where [24] appears, read: systemic / organ weight / testes / relative to body weight.
Where [25] appears, read: systemic / organ weight / liver / absolute + systemic / organ weight / liver / relative to body weight + systemic / organ weight / heart / ….
Where [26] appears, read: group: developmental, developmental / developmental malformation / brain / dilated cerebral ventricle.
[27] abbreviates: group: maternal, systemic / in life observation / clinical signs / altered breathing rate + systemic / in life observation / clinical signs / lethargy + ….
The mark [28] stands for this setting: group: developmental, systemic / in life observation / body weight / fetal weight.
Where [29] appears, read: group: maternal, systemic / in life observation / body weight / body weight + systemic / in life observation / body weight / body weight gain + systemic / in….
Setting [30] is: systemic / organ weight / liver / relative to body weight.
[31] abbreviates: group: developmental, developmental / developmental malformation / bone / incomplete ossification + developmental / developmental malformation / bone / unossified.
[32] abbreviates: group: maternal, systemic / in life observation / clinical signs / salivation + systemic / in life observation / mortality / mortality + systemic / in life ….
Where [33] appears, read: reproductive / reproductive performance / implantations / implantations + systemic / in life observation / body weight / body weight gain + ….

`CCCCOCCOCCO` [2-(2-Butoxyethoxy)ethanol]: the LEL in the data set on rabbit [1] (systemic / in life observation / clinical signs / desquamation + systemic / in life observation / clinical signs / erythema) came out at 300 mg/kg/day; with rat [2], 25 mg/kg/day; in the data set on rat [3] (systemic / hematology / erythrocyte (rbc) count differential / erythrocyte (rbc) + systemic / hematology / hematocrit (hct) / hematocrit (…), 250 mg/kg/day; with rat [4], 1000 mg/kg/day. The LOAEL is greater than 1000 mg/kg/day in the data set on rabbit [1] (setting [18]), greater than 633 mg/kg/day in the data set with rat [2], greater than 1000 mg/kg/day with rat [3] (setting [19]) and greater than 1000 mg/kg/day in the data set with rat [4]. In addition, the NEL in the data set with rabbit [1] (setting [18]) was 100 mg/kg/day; in the data set on rat [2] it was less than 25 mg/kg/day; in the data set with rat [3] (setting [19]), 50 mg/kg/day; with rat [4], 500 mg/kg/day. The NOAEL with rabbit [1] (setting [18]) was no less than 1000 mg/kg/day; with rat [2] it was no less than 633 mg/kg/day; with rat [3] (setting [19]), no less than 1000 mg/kg/day; with rat [4], no less than 1000 mg/kg/day.
`Nc1ccc([N+](=O)[O-])cc1` [4-Nitroaniline]: the lowest observed adverse effect level (LOAEL) with mouse [5] (setting [20]) was 30 mg/kg/day; with mouse [6] (setting [22]) it was 30 mg/kg/day; in the data set with rat [7] it was greater than 9 mg/kg/day. Moreover, the results for the NOAEL with mouse [5] (setting [20]), in the data set on mouse [6] (setting [22]) and with rat [7] were 3 mg/kg/day, 10 mg/kg/day and no less than 9 mg/kg/day, respectively. In addition, the LEL in the data set with mouse [5] (setting [21]) was 3 mg/kg/day; in the data set with mouse [6] (systemic / pathology microscopic / spleen / hematopoietic cell proliferation + systemic / organ weight / liver / relative to body weight + …) it was 10 mg/kg/day; in the data set on rat [7] it was 1.5 mg/kg/day. Further, the values for the NEL in the data set with mouse [5] (setting [21]), in the data set on mouse [6] (setting [22]) and with rat [7] were less than 3 mg/kg/day, 3 mg/kg/day and 0.25 mg/kg/day, respectively.
`O=C(NC(=O)c1c(F)cccc1F)Nc1ccc(CON=C(c2ccc(Cl)cc2)C2CC2)cc1` [Flucycloxuron]: the LOAEL in the data set on rat [8] (setting [23]) was greater than 7000 mg/kg/day; in the data set on mouse [9] it was 73 mg/kg/day; with dog, 10 mg/kg/day; with rat [10] (systemic / pathology microscopic / liver / necrosis + systemic / pathology microscopic / spleen / pigmentation + systemic / organ weight / …), 2000 mg/kg/day. Moreover, the NOAEL is no less than 7000 mg/kg/day in the data set with rat [8] (setting [23]), 5.3 mg/kg/day with mouse [9], less than 10 mg/kg/day in the data set on dog and 200 mg/kg/day in the data set with rat [10] (systemic / pathology microscopic / liver / necrosis + systemic / pathology microscopic / spleen / pigmentation + systemic / clinical …). Moreover, the LEL in the data set on rat [8] (setting [24]) was determined as 120 mg/kg/day; in the data set on mouse [9], 73 mg/kg/day; in the data set on dog it was 10 mg/kg/day; in the data set with rat [10] (setting [25]), 200 mg/kg/day. The NEL is less than 120 mg/kg/day with rat [8] (setting [24]), 5.3 mg/kg/day with mouse [9], less than 10 mg/kg/day in the data set with dog and less than 200 mg/kg/day in the data set on rat [10] (setting [25]).
On to `c1ccc2ccccc2c1` [Naphthalene], for which, in the data set with rat [11], the LEL came to 3.6 mg/kg/day, the LOAEL is 3.6 mg/kg/day, the NEL was less than 3.6 mg/kg/day and the NOAEL was less than 3.6 mg/kg/day. Besides, in the data set with rat [12] (setting [26]), the LEL is 450 mg/kg/day, the LOAEL is greater than 450 mg/kg/day, the NEL is 150 mg/kg/day and the NOAEL was no less than 450 mg/kg/day. In the data set with rat [12] (setting [27]), the LEL turned out to be 50 mg/kg/day, the lowest observed adverse effect level (LOAEL) came to 50 mg/kg/day, the NEL is less than 50 mg/kg/day and the NOAEL was less than 50 mg/kg/day.
For `[N-]=[N+]=[N-].[Na+]` [Sodium azide], the LEL came out at 10 mg/kg/day with rat [13], 17.5 mg/kg/day with rat [14] (setting [28]), 17.5 mg/kg/day with rat [14] (setting [29]) and 1.25 mg/kg/day in the data set with rat [15] (setting [30]). Further, the LOAEL in the data set with rat [13] was 10 mg/kg/day; in the data set with rat [14] (setting [28]) it was greater than 17.5 mg/kg/day; with rat [14] (setting [29]), greater than 17.5 mg/kg/day; in the data set with rat [15] (systemic / in life observation / body weight / body weight gain + systemic / in life observation / clinical signs / hunched posture), 10 mg/kg/day. Also, the NEL in the data set with rat [13] is 5 mg/kg/day; in the data set with rat [14] (setting [28]), 5 mg/kg/day; with rat [14] (setting [29]), 5 mg/kg/day; with rat [15] (setting [30]) it was less than 1.25 mg/kg/day. Besides, the NOAEL with rat [13] is 5 mg/kg/day; in the data set on rat [14] (setting [28]), no less than 17.5 mg/kg/day; in the data set on rat [14] (setting [29]), no less than 17.5 mg/kg/day; in the data set with rat [15] (systemic / in life observation / body weight / body weight gain + systemic / in life observation / clinical signs / hunched posture + …) it was 5 mg/kg/day.
In the case of `CCN(CC)CC.O=C(O)COc1nc(Cl)c(Cl)cc1Cl` [Triclopyr triethylamine salt], the LEL in the data set on rat [16] (setting [31]) is 300 mg/kg/day; with rat [16] (group: maternal, systemic / in life observation / water consumption / water consumption), 100 mg/kg/day; in the data set on rabbit [17] (reproductive / reproductive performance / preimplantation loss / preimplantation loss), 30 mg/kg/day. Further, the lowest observed adverse effect level (LOAEL) in the data set with rat [16] (setting [31]) was 300 mg/kg/day; with rat [16] (group: maternal, systemic / in life observation / clinical signs / salivation + systemic / in life observation / mortality / mortality), 300 mg/kg/day; in the data set with rabbit [17] (setting [33]) it was 100 mg/kg/day. The NEL in the data set on rat [16] (setting [31]) is 100 mg/kg/day; with rat [16] (setting [32]), 30 mg/kg/day; with rabbit [17] (setting [33]) it was 10 mg/kg/day. Also, the values for the NOAEL in the data set on rat [16] (setting [31]), with rat [16] (setting [32]) and with rabbit [17] (setting [33]) were 100 mg/kg/day, 100 mg/kg/day and 30 mg/kg/day, respectively.
